Laboratory results: patent publication US20040237845A1 (priority 2002, published 2004)

Format: physicochemical
Conditions: kaolin clay slurry, no further addition of acid or chlorine donor

Sodium Chlorite [stabilized chlorine dioxide]
persistence of oxidizing/biocidal effects: up to 14 days
